This note sets out measurements from patent US4734409A, “Cephalosporin derivative, process for producing the same and pharmaceutical composition containing the same” (Kureha Kagaku Kogyo Kabushiki Kaisha, priority 1984, dated 1988).

The term amount remaining denotes the share of the starting amount still present when the sample was taken. A high value points to less turnover.

One series is described as follows: in vitro. It is filed as in vitro ADME, Staphylococcus aureus. The note with it: rat, s9. The protocol: (§1) As a model experiment for verifying the stability of the present compound in Example 1 in the living body, the following procedures were adopted. The same test solution of the present compound as in Example 6 was prepared by mixing 0.1 ml of the dispersion of the present compound and 0.9 ml of S-9 mix, and shaking the mixture for 20 min at 37° C. As a control, a mixture of 0.1 ml of the dispersion of the present compound and 0.9 ml of the 0.2M phosphoric acid buffer was shaken for 20 min at 37° C. As the test bacteria, Staphylococcus aureus IAM 1011 was inoculated in Mueller-Hinton culture medium, and after incubating the inoculum for 18 hours at 37° C., the number of bacteria in the medium was adjusted to 10^8 /ml and the thus adjusted, cultured medium was mixed with 50 times by volume of Mueller-Hinton culture medium. After preparing an agar plate from the mixture, a penicillin cup of 8 mm in diameter was placed on the agar plate, and 0.1 ml of the test solution prepared above was put into the cup. After leaving the thus prepared agar plate for 2 hours at 4° C., the agar plate was subjected to culture for 18 hours at 37° C. to measure the diameter of a proliferation-inhibiting circle appearing on the agar plate. From a calibration curve preliminarily prepared between the concentration of the present compound and the diameter of the proliferation-inhibiting circle, the concentration of the present compound in the test solution and the control was obtained. By using the thus obtained concentration, the rate of retaining the antibacterial activity (Rate (%)) was calculated from the following formula and is shown in Table 5. [formula] As a comparative experiment, the same precedures were carried out except for using Cefotax (a commercialized cephalosporin derivative sold by CHUGAI Pharmaceuticla Co., Ltd., which is represented by the following formula), [drawing 21] instead of the present compound produced in Example 1.

Series [1] has as its system Staphylococcus aureus IAM 1011. As to the kind of experiment: in vitro. Format: in vitro ADME. The protocol: as §1
For series [2], the system named is Escherichia coli IFO 12734. As to the kind of experiment: Therapeutic effect on the experimental infectious disease on mice. It is filed as in vivo, Escherichia coli (infected ddY-SPF mice). The text has this: Therapeutic effect of the present compounds on the infection was examined as follows.
The test system of series [3] is Staphylcoccus aureus IAM 1011. As to the kind of experiment: Activation by rat liver homogenate (S-9 mix), penicillin cup proliferation-inhibiting circle. It is filed as cell-based, Staphylococcus aureus. The note with it: 20 min at 37° C., inhibiting circle diameter as % of that of the starting compound; for Degree of activation, Before adding S-9 mix: phosphoric acid buffer control; for Degree of activation, After adding S-9 mix: rat liver S-9 mix. The protocol:
As an enzyme for activating metabolism of the present compound, rat liver homogenate (S-9, manufactured by Oriental Yeast Co., Ltd.) was used in preparing the following mixture (hereinafter referred to as S-9 mix).
Composition of S-9 mix (amount in one ml of S-9 mix)
A test solution of present compound was prepared by mixing 0.1 ml of a dispersion of the present compound and 0.9 ml of the thus prepared S-9 mix and shaking the thus prepared mixture for 20 min at 37° C. As a control, a mixture was prepared by mixing 0.1 ml of the dispersion of the present compound and 0.9 ml of the 0.2M phosphoric acid buffer and shaking the mixture for 20 min at 37° C.
As the test bacteria, Staphylcoccus aureus IAM 1011 was inoculated in Mueller-Hinton culture medium and after incubating the inoculum for 18 hours at 37° C., the number of the bacteria was adjusted to 10^8 /ml and the bacterial preparation was mixed with 50 times by volume of Mueller-Hinton culture medium, and an agar plate was prepared from the mixture.
After placing a penicillin cup of 8 mm in diameter on the thus prepared agar plate, 0.1 ml of the test solution of present compound prepared above was put into the cup, and after leaving the agar plate for 2 hours at 4° C., the agar plate was subjected to culture for 18 hours at 37° C. and the diameter of a proliferation-inhibiting circle appearing on the agar plate was measured.
The same procedures were carried out except for using 7β-[2-(2-amino-4-thiazolyl)-(Z)-2-methoxyiminoacetamido]-3-[(2-methyl-1,3,4-thiadiazol-5-yl)thiomethyl]-3-cephem-4-carboxylic acid used as a starting compound for producing the present compound in Example 1 instead of the present compound.
The percentage of the diameter of a proliferation-inhibiting circle due to the present compound to that due to the starting compound mentioned above was obtained, and from the following standards, the degree of activation was obtained.

Another series deals with Streptococcus sp. Briefly: Effect on the intestinal bacterial colonies: Streptococcus sp. in feces. It is filed as in vivo, Streptococcus sp. (feces of female ICR-JCL mice). The note with it: after administration; 100 mg/kg orally once a day, 2 days; before administration 6.8. As for the experimental part:
(§2) Effect of the present compound on the intestinal bacterial colonies was examined as follows.
(§3) The present compound prepared in Example 2 was orally administered to each of 5 animals of a group of female ICR-JCL mice of 6-weeks-old at a daily dosage of 100 mg/kg once a day for continuous 2 days. Feces of each of the mice were collected before and after one day of the administration, and after diluting thereof with 100 times by weight of an anaerobic diluent (an aqueous phosphoric acid buffer) the thus diluted feces were ground, and 0.1 ml of the thus ground and diluted feces was smeared on each culture medium for each bacterial species (shown in Table 1).
(§4) After incubating the thus prepared culture media at 25° C. for one to five days aerobically in the cases of Escherichia coli, Pseudomonas aeruginosa and the Streptococcus species or anaerobically in the cases of the Lactobacillus acidophilus, Lactobacillus bifidus and the Bacterioides species, the number of each bacteria proliferating on the culture medium was counted.
TATAC the same as above

In another series the test system is Bacteroides sp. As to the kind of experiment: Effect on the intestinal bacterial colonies: Bacteroides sp. in feces. The following applies: after administration; 100 mg/kg orally once a day, 2 days; before administration 8.3. Format: in vivo, Bacteroides sp. (feces of female ICR-JCL mice). As for the experimental part:
as §2, §3, §4

In a further series the test system is Pseudomonas aeruginosa. Briefly: Effect on the intestinal bacterial colonies: P. aeruginosa in feces. The following applies: after administration; 100 mg/kg orally once a day, 2 days; before administration <3.0. Format: in vivo, Pseudomonas aeruginosa (feces of female ICR-JCL mice). As for the experimental part: as §2, §3, §4
(2) Pseudomonas aeruginosa

In another series the test system is Lactobacillus bifidus. As to the kind of experiment: Effect on the intestinal bacterial colonies: L. bifidus in feces. It is filed as in vivo, Lactobacillus bifidus (feces of female ICR-JCL mice). The following applies: after administration; 100 mg/kg orally once a day, 2 days; before administration 8.5. The protocol: as §2, §3, §4
(5) Lactobacillus bifidus

The next series concerns Escherichia coli. Briefly: Effect on the intestinal bacterial colonies: E. coli in feces. Format: in vivo, Escherichia coli (feces of female ICR-JCL mice). The note with it: after administration; 100 mg/kg orally once a day, 2 days; before administration 6.4. As for the experimental part: as §2, §3, §4
DHL aerobic, 37° C., one day

In series [4] the test system is Lactobacillus acidophilus. As to the kind of experiment: Effect on the intestinal bacterial colonies: L. acidophilus in feces. Format: in vivo, Lactobacillus acidophilus (feces of female ICR-JCL mice). The following applies: after administration; 100 mg/kg orally once a day, 2 days; before administration 9.0. The protocol: as §2, §3, §4
(4) Lactobacillus acidophilus
LBS anaerobic, 37° C., 5 days

In the series “in vitro”, `CO/N=C(\C(=O)N[C@@H]1C(=O)N2C(C(=O)O)=C(CSc3nnc(C)s3)CS[C@H]12)c1csc(NC(=O)C(Cl)Cl)n1` [Example 1, 7β-[2-(2-dichloroacetamido-4-thiazolyl)-(Z)-2-methoxyiminoacetamido]-3-[(2-methyl-1,3,4-thiadiazol-5-yl)thiomethyl]-3-cephem-4-carboxylic acid] had a fraction remaining at 20 min of 90%. For the same compound, the “Rate of retaining the antibacterial activity (in words)” value in [1] is on record as “superior to a conventional commerciallized cephalosporin derivative”. The “survival 7 days after inoculation” value in series [2] (intravenous administration, dose not given) is given as “All the ddY-SPF mice administered with the present compound produced in Example 1 via intravenation survived”. In addition, in series [3], the “Degree of activation, Before adding S-9 mix” value is reported as “++++ (100 to 150%)” and the “Degree of activation, After adding S-9 mix” value is recorded as “++++ (100 to 150%)”.
As to `CO/N=C(\C(=O)N[C@@H]1C(=O)N2C(C(=O)OCOC(=O)C(C)(C)C)=C(CSc3nnc(C)s3)CS[C@H]12)c1csc(NC(=O)C(Cl)Cl)n1` [Example 2], the “Logarithmic value of the number of bacterial cells per one gram of feces, (3) Streptococcus sp.” value in the series with Streptococcus sp. is 7.0 Logarithmic value of the number of bacterial cells per one gram of feces. Besides, the “Rate of retaining the antibacterial activity (in words)” value in [1] was “the same result as that obtained in using the present compound produced in Example 1”. In the series on Bacteroides sp., the “Logarithmic value of the number of bacterial cells per one gram of feces, (6) Bacteroides sp.” value was 8.2 Logarithmic value of the number of bacterial cells per one gram of feces. Further, in series [2] (25 mg/kg orally, 1 time, 1 hour after intraperitoneal inoculation of 1.4×10^3 cells, all untreated mice died on the second day), the “survival 7 days after inoculation” value is “all the mice administered with the present compound survived”. In addition, the “Logarithmic value of the number of bacterial cells per one gram of feces, (2) P. aeruginosa” value in the series on Pseudomonas aeruginosa is < 3.0 Logarithmic value of the number of bacterial cells per one gram of feces. Besides, the “Logarithmic value of the number of bacterial cells per one gram of feces, (5) L. bifidus” value with Lactobacillus bifidus is reported as 8.5 Logarithmic value of the number of bacterial cells per one gram of feces. The “Logarithmic value of the number of bacterial cells per one gram of feces, (1) E. coli” value with Escherichia coli is 6.4 Logarithmic value of the number of bacterial cells per one gram of feces. Also, in series [3], the “Degree of activation, Before adding S-9 mix” value is reported as “± (0 to 1%)” and the “Degree of activation, After adding S-9 mix” value is listed as “++++ (100 to 150%)”. Moreover, the “Logarithmic value of the number of bacterial cells per one gram of feces, (4) L. acidophilus” value in [4] was 8.9 Logarithmic value of the number of bacterial cells per one gram of feces.
